The test system of one assay is SkM:NRVM co-cultures. Nature of the assay: Pharmacological intervention for induced reentrant arrhythmias, optical mapping of mixed co-cultures. The format is cell-based. The note with it: n=12.
The test system of another assay is L-type calcium channel. Nature of the assay: Nitrendipine dose response curve: APD and conduction velocity by optical mapping. The note with it: nitrendipine 5 μM. The format is cell-based.

Experimental for L-type calcium channel: (§1) Coverslips were visually inspected under a microscope. Monolayers with obvious gaps in confluency and non-beating cultures were rejected. The coverslips were placed in a custom-designed chamber, stained with 5 μM di-4-ANEPPS (Molecular Probes; Eugene, Oreg.) for 5 min and continuously superfused with warm (36.5° C.) oxygenated Tyrode solution consisting of (in mM) 135 NaCl, 5.4 KCl, 1.8 CaCl2, 1 MgCl2, 0.33 NaH2PO4, 5 HEPES, and 5 Glucose. A unipolar point or area electrode (4 bipolar line electrodes) was used to stimulate the cells in culture. Action potentials were recorded from 253 sites using a modified custom-built contact fluorescence imaging system.^15 The recording chamber was placed directly above a fiber bundle with fibers arranged in a 17 mm-diameter hexagonal array. A light emitting diode (LED) light source with an interference filter (530+/−25 mm) delivered excitation light to the chamber. […]
Baseline drift was reduced by subtraction of a fitted polynomial curve from the optical signal. […] To compare velocities among different episodes in the same monolayer, conduction velocity was calculated along the same path and averaged over different stimulus responses. […] Data are expressed as Mean +/−SEM unless stated otherwise. Differences between means were assessed using the Student's t test or Fischer's exact test.
Experimental for SkM:NRVM co-cultures: Human skeletal myoblasts were obtained from Cambrex (Walkersville, Md.) and grown in myoblast basal growth medium (SkBM, Clonetics) containing 10% fetal bovine serum, recombinant human epidermal factor (10 ng/ml), dexamethasone (3 μg/ml), L-glutamine, Gentamicin and Amphotericin-B, at 37° C. and 5% CO2. (Vials obtained from Cambrex contained 70-80% myoblasts, and the remainder were fibroblasts). The cells were seeded at 3,500 cells/cm^2 and maintained at cell densities of 60-70% to prevent myotube formation during the culture process. Cells were transduced with lentivirus on their second passage and frozen at −80° C. or amplified up to 10 population doublings. For co-cultures, myoblasts were dissociated using trypsin, counted and then used.
Cells were re-suspended in M199 culture medium (Life Technologies, Rockville, Md.), supplemented with 10% heat-inactivated fetal bovine serum (Life Technologies), differentially pre-plated in two 45 minute steps, and then counted using a hemocytometer. For control experiments, 10^6 cells were plated on 22 mm plastic coverslips coated with fibronectin (25 μg/ml). On day 2 after cell plating, serum was reduced to 2%.
Myoblasts and NRVMs were co-cultured (isotropic) on 22 mm plastic cover slips (coated with fibronectin, 25 μg/ml) for 9-11 days and then used for optical mapping. In an initial set of experiments, 0.5×10^6 NRVMs were plated over half of the cover slip, with the other half covered by a PDMS stamp coated with fibronectin (50 μg/ml). The PDMS stamp was removed 24 hours later and 0.5×10^6 myoblasts transduced with Lv-GFP were then plated. […] In a second set of experiments, the myoblasts (transduced with LvGFP) and NRVMs were plated at the same time in varying ratios: 1:1, 1:4 and 1:9 to study the electrophysiologic consequences of mixing the two cell types.
as §1

With `CCN(CC)CC(=O)Nc1c(C)cccc1C` [lidocaine], in the assay on SkM:NRVM co-cultures (lidocaine 200 μM superfused, co-cultures), the termination of reentry result is “did not terminate it in the majority of co-cultures”. Moreover, the “slowed the reentry rate” value with SkM:NRVM co-cultures (lidocaine 200 μM superfused, induced reentry in co-cultures) is reported as 70-80%.
Take `CCOC(=O)C1=C(C)NC(C)=C(C(=O)OC)C1c1cccc([N+](=O)[O-])c1` (centres unmarked) [nitrendipine]: the “slowed the reentrant rhythms” value with SkM:NRVM co-cultures (nitrendipine 5 μM superfused, before termination) was 10-20%. The “time to abrupt termination of reentry” value with SkM:NRVM co-cultures (nitrendipine 5 μM, in all co-cultures) was not above 5 min. Also, the “shortened APD” value in the assay on L-type calcium channel is 50%.

Values taken from patent US20080260705A1, “Preventing Arrhythmias Associated with Cell Transplantation” (The Johns Hopkins University, priority 2004, published 2008).
